Source: US20230413822A1, “ORAL CANINE FEED AND METHODS FOR C[…] INFESTATIONS IN A CANINE” (In the Bowl Animal Health, Inc., priority 2021, published 2023)
“And” between values parts separate entries of the source, which are not always exact repeats. Identical values can stand only once.

Legend:
[1] = Plasma concentration of mivorilaner in dogs given an oral liquid formulation daily (Example 1); assay type: in vivo; conditions: for Mivorilaner Concentration, Average: average of 6 canines, days 0-29; for Mivorilaner Concentration: individual canines, days 0-29, 0.75 mg/kg/day
From the text: Methods: A pool of 14 dogs are to be preliminarily infested with ˜100 unfed adult C. felis in order to produce dogs that can suitably sustain a reliable infestation rate, defined as approximately 50% fleas being live at the end of a 48-hour period. The 12 dogs with the highest live flea counts are to be selected for inclusion in the study. The dogs are to be divided into a control group and a treatment group.
(§1) The dogs are to be housed individually during the study period and are to be fed a commercial dry dog food ration with ad libitum access to water.
Each dog in the treatment group is to receive by mouth a liquid formulation of isoxazoline. The dosage of 0.75 mg/kg is to be administered to the dogs on each of days 0-29.
Dogs in the control group are not to receive isoxazoline or any other tick control treatment. Each dog in the treatment group is to be offered its daily ration (dry food) and the individual doses of liquid formulation are to be administered after the individual dog has eaten at least 25% of its total daily ration. After receiving the dose of isoxazoline, the dogs are to be allowed to continue eating. This mimics incorporating the isoxazoline in feed. Each dog in the treatment group and the control group is to be experimentally infested with 50 adult ticks on test days 5, 12, 19, 28 and 35. Comb counts for live and moribund attached ticks are to be conducted on days 7, 14, 21, 30 and 37.

[2] = Plasma concentration of mivorilaner in dogs at various daily oral doses (Example 2); assay type: in vivo; conditions: average plasma
From the text: Methods: A pool of 46 dogs are to be preliminarily infested with ˜50 unfed adult R. sanguineus ticks in order to produce dogs that can suitably sustain a reliable infestation rate, defined as approximately 25% of attached ticks being live at the end of a 48-hour period. The 40 dogs with the highest live attached tick counts are to be selected for inclusion in the study. The dogs are to be randomly assigned to one of a control group and 4 treatment groups.
as §1
Each dog in a treatment group (test groups 2-5) is to receive by mouth a liquid formulation of isoxazoline.
Dogs in the control group are not to receive isoxazoline or any other tick control treatment. Each dog in the treatment group is to be offered its daily ration (dry food) and the individual doses of liquid formulation are to be administered after the individual dog has eaten at least 25% of its total daily ration. After receiving the dose of isoxazoline, the dogs are to be allowed to continue eating. Each dog in treatment groups 3-5 and the control group is to be experimentally infested with 50 adult ticks on test days −2, 5, 12, 19, 28, 35 and 42. Dogs in group 2 are to be infested with 50 adult ticks on test days 19, 28 and 35. Comb counts for live adult ticks are to be conducted on days 2, 7, 14, 21, 30, 37 and 44.
Sample results of the average plasma concentration of isoxazoline in a canine's blood at different dosage levels of mivorilaner are shown in TABLE 3 and FIG. 4.

O=C(CNC(=O)c1sc(C2=NO[C@@](c3cc(Cl)c(F)c(Cl)c3)(C(F)(F)F)C2)c2c1CCC2)NCC(F)F [Mivorilaner, 3-[(5S)-5-(3,5-dichloro-4-fluorophenyl)-5-(trifluoromethyl)-4,5-dihydroisoxazol-3-yl]-N-[2-[(2,2-difluoroethyl)amino]-2-oxoethyl]-5,6-dihydro-4H-cyclopenta[c]thiophene-1-carboxamide]
Mivorilaner Concentration, Average ([1]; Day 3, 0.75 mg/kg/day oral): 674 ng/mL | Mivorilaner Concentration, Average ([1]; Day 7, 0.75 mg/kg/day oral): 1449 ng/mL | Mivorilaner Concentration, Average ([1]; Day 14, 0.75 mg/kg/day oral): 2105 ng/mL | Mivorilaner Concentration, Average ([1]; Day 21, 0.75 mg/kg/day oral): 2725 ng/mL | Mivorilaner Concentration, Average ([1]; Day 30, 0.75 mg/kg/day oral): 2628 ng/mL | Mivorilaner Concentration, Average ([1]; Day 37, 0.75 mg/kg/day oral): 2017 ng/mL | Mivorilaner Concentration ([1]; Day 3, 0.75 mg/kg/day oral): 556 ng/mL and 648 ng/mL and 579 ng/mL and 660 ng/mL | Mivorilaner Concentration ([1]; Day 7, 0.75 mg/kg/day oral): 1330 ng/mL and 1620 ng/mL and 994 ng/mL and 1470 ng/mL | Mivorilaner Concentration ([1]; Day 14, 0.75 mg/kg/day oral): 1990 ng/mL and 2530 ng/mL and 1560 ng/mL and 2120 ng/mL | Mivorilaner Concentration ([1]; Day 21, 0.75 mg/kg/day oral): 2750 ng/mL and 2820 ng/mL and 2450 ng/mL and 2720 ng/mL | Mivorilaner Concentration ([1]; Day 30, 0.75 mg/kg/day oral): 2570 ng/mL and 2890 ng/mL and 2320 ng/mL and 2600 ng/mL | Mivorilaner Concentration ([1]; Day 37, 0.75 mg/kg/day oral): 2070 ng/mL and 2410 ng/mL and 1880 ng/mL and 2010 ng/mL | Mivorilaner Concentration ([2]; Group 2 (0.125 mg/kg/day) oral fed, 72 hours after initial dose): 135.83 ng/mL | Mivorilaner Concentration ([2]; Group 2 (0.125 mg/kg/day) oral fed, 120 hours after initial dose): 212.63 ng/mL | Mivorilaner Concentration ([2]; Group 2 (0.125 mg/kg/day) oral fed, 168 hours after initial dose): 243.63 ng/mL | Mivorilaner Concentration ([2]; Group 2 (0.125 mg/kg/day) oral fed, 336 hours after initial dose): 383.75 ng/mL | Mivorilaner Concentration ([2]; Group 2 (0.125 mg/kg/day) oral fed, 504 hours after initial dose): 404.13 ng/mL | Mivorilaner Concentration ([2]; Group 2 (0.125 mg/kg/day) oral fed, 720 hours after initial dose): 419.50 ng/mL | Mivorilaner Concentration ([2]; Group 2 (0.125 mg/kg/day) oral fed, 888 hours after initial dose): 447.50 ng/mL | Mivorilaner Concentration ([2]; Group 2 (0.125 mg/kg/day) oral fed, 1056 hours after initial dose): 428.38 ng/mL | Mivorilaner Concentration ([2]; Group 2 (0.125 mg/kg/day) oral fed, 1224 hours after initial dose): 485.50 ng/mL | Mivorilaner Concentration ([2]; Group 2 (0.125 mg/kg/day) oral fed, 1440 hours after initial dose): 897.50 ng/mL | Mivorilaner Concentration ([2]; Group 3 (0.25 mg/kg/day) oral fed, 72 hours after initial dose): 283.13 ng/mL | Mivorilaner Concentration ([2]; Group 3 (0.25 mg/kg/day) oral fed, 120 hours after initial dose): 450.00 ng/mL | Mivorilaner Concentration ([2]; Group 3 (0.25 mg/kg/day) oral fed, 168 hours after initial dose): 579.13 ng/mL | Mivorilaner Concentration ([2]; Group 3 (0.25 mg/kg/day) oral fed, 336 hours after initial dose): 883.38 ng/mL | Mivorilaner Concentration ([2]; Group 3 (0.25 mg/kg/day) oral fed, 504 hours after initial dose): 877.75 ng/mL | Mivorilaner Concentration ([2]; Group 3 (0.25 mg/kg/day) oral fed, 720 hours after initial dose): 1015.63 ng/mL | Mivorilaner Concentration ([2]; Group 3 (0.25 mg/kg/day) oral fed, 888 hours after initial dose): 1003.88 ng/mL | Mivorilaner Concentration ([2]; Group 3 (0.25 mg/kg/day) oral fed, 1056 hours after initial dose): 945.13 ng/mL | Mivorilaner Concentration ([2]; Group 3 (0.25 mg/kg/day) oral fed, 1224 hours after initial dose): 1040.88 ng/mL | Mivorilaner Concentration ([2]; Group 3 (0.25 mg/kg/day) oral fed, 1440 hours after initial dose): 999.13 ng/mL | Mivorilaner Concentration ([2]; Group 4 (0.5 mg/kg/day) oral fed, 72 hours after initial dose): 474.25 ng/mL | Mivorilaner Concentration ([2]; Group 4 (0.5 mg/kg/day) oral fed, 120 hours after initial dose): 763.13 ng/mL | Mivorilaner Concentration ([2]; Group 4 (0.5 mg/kg/day) oral fed, 168 hours after initial dose): 888.00 ng/mL | Mivorilaner Concentration ([2]; Group 4 (0.5 mg/kg/day) oral fed, 336 hours after initial dose): 1457.88 ng/mL | Mivorilaner Concentration ([2]; Group 4 (0.5 mg/kg/day) oral fed, 504 hours after initial dose): 1633.25 ng/mL | Mivorilaner Concentration ([2]; Group 4 (0.5 mg/kg/day) oral fed, 720 hours after initial dose): 1873.75 ng/mL | Mivorilaner Concentration ([2]; Group 4 (0.5 mg/kg/day) oral fed, 888 hours after initial dose): 1986.25 ng/mL | Mivorilaner Concentration ([2]; Group 4 (0.5 mg/kg/day) oral fed, 1056 hours after initial dose): 2012.50 ng/mL | Mivorilaner Concentration ([2]; Group 4 (0.5 mg/kg/day) oral fed, 1224 hours after initial dose): 2318.75 ng/mL
